From US20210059977A1, “COMBINATION THERAPIES FOR THE TREATMENT OF AMYOTROPHIC LATERAL SCLEROSIS AND RELATED DISORDERS” (The General Hospital Corporation, priority 2018, published 2021)

Legend:
Type in all cases: in vivo, mice
MCP-1 = test: CCL2/MCP-1 ELISA assay
Description: Spinal cord tissue was homogenized, and supernatants were derived as described in the section related to the Meso Scale Discovery cytokine assay. MCP-1 levels were measured in the supernatants generated from spinal cord tissue or in the plasma using the 96-well Mouse CCL2/JE/MCP-1 Quantikine ELISA Kit (R&D systems, #MJE00B), following the manufacturer's instructions. Briefly, samples and diluted standards were added to the plate coated with MCP-1-specific antibody. Samples were incubated in the plate for 2 hours on a shaker at room temperature, followed by washes with the wash buffer provided in the kit. Subsequently, horseradish peroxidase conjugated antibody against MCP-1 was added to each well and incubated for 2 hours at room temperature on the shaker. The plate was washed with the wash buffer and incubated with Substrate solution for 30 minutes at room temperature. Next, Stop solution was added and the signal was read on a Microplate reader (Synergy 2, Biotek Instruments). The optical density was measured at […] and was corrected with the optical density measured at 540 nm. MCP-1 levels in the samples were calculated based on the MCP-1 standard curve. Protein concentrations in the supernatants were measured by the Pierce BCA protein assay kit (Thermo Scientific). Values in the graphs represent levels of MCP-1 normalized to the corresponding protein concentrations. […]

[1] = test system: lumbar spinal cord motor neurons; test: Motor neuron quantification (H&E); details: TgSOD1-Cromolyn vs TgSOD1-Vehicle; p=0.0033
Description: Longitudinal sections (10 μm) of the lumbar spinal cord were cut from fresh frozen tissue. Hematoxylin and eosin (H&E) staining was performed on the tissue sections as previously described. Within the region containing the ventral horn, all motor neurons are counted for three individual sections per animal (each separated by […]) to cover the areas of highest motor neuron density within the ventral horn. All counting was performed by an individual blinded to the genotypes. Images were acquired using a Zeiss microscope 20× objective (0.8 NA) and processed with Metamorph image analysis software (Molecular Devices).
(§1) 149 male and female age- and litter-matched transgenic (Tg) SOD1^G93A and wild-type (Wt) SOD1^G93A mice were used with the following breakdown: Females (19 WtSOD1-Vehicle, 17 WtSOD1-Cromolyn, 19 TgSOD1-Vehicle, and 17 TgSOD1-Cromolyn) and Males (18 WtSOD1-Vehicle, 21 WtSOD1-Cromolyn, 21 TgSOD1-Vehicle, 17 TgSOD1-Cromolyn).

GPR35 = GPR35 immunofluorescence, lumbar spinal cord; details: TgSOD1-Cromolyn vs TgSOD1-Vehicle
Description: Frozen mouse lumbar spinal cord was sectioned at […] and stained using previously described methods. Tissue sections were fixed with 4% paraformaldehyde and blocked in a mixture of phosphate-buffered saline (PBS), 5% BSA, and normal goat serum. Co-staining was done using antibodies specific for GPR35 (Novus Biologicals, Littleton, Colo.; NBP2-24640) and NeuN (Millipore Sigma, Temecula, Calif.; MAB377 overnight at 4° C. Following three washes with PBS, sections were incubated with Cy3-conjugated goat anti-mouse and FITC-conjugated goat anti-rabbit antibodies (Jackson ImmunoResearch, West Grove, Pa.). Ten 20× fields were imaged from each section and analyzed using open source software from the National Institutes of Health (ImageJ).
as §1

SOD1^G93A mouse model [2] = test: Paw Grip Endurance Test (PaGE); details: TgSOD1-Cromolyn vs TgSOD1-Vehicle
Description: The PaGE test was performed as previously described. Briefly, mice were placed on the wire lid of a conventional housing cage that was inverted and held at ˜45 cm above an open cage bottom. […] The largest value from three individual trials was used for analysis.
as §1

[3] = test system: Iba1-positive cell area in lumbar spinal cord; test: Iba1 immunohistochemical analysis (microgliosis); details: TgSOD1-Cromolyn vs TgSOD1-Vehicle
Description: Frozen spinal cord sections were fixed in 4% PFA/PBS for 72 hours and dehydrated with 30% sucrose in PBS. Sections were washed three times (5 minutes each) with PBS and incubated with 3% H2O2 in PBS for 15 minutes to quench endogenous peroxidases. Sections were subsequently washed three times with PBS and blocked using 5% (v/v) normal goat serum (Vector Laboratories), 0.3% Triton X-100 in PBS. Primary antibody against Iba1 (rabbit polyclonal, 1:400, Wako, #019-19741) was diluted in a buffer containing 2.5% (v/v) normal goat serum, 0.3% Triton X-100 and incubated overnight at 4° C. On the following day, samples were washed three times (10 minutes each) with PBS. The primary antibody was detected using a biotinylated secondary antibody (1:200) and VECTASTAIN Elite ABC HRP kit (Vector Laboratories), and developed with DAB (Vector Laboratories), following the provider's instructions. Sections were dehydrated in a series of graded ethanol, cleared in xylene, and cover-slipped with Cytoseal-XYL xylene-based mounting medium (Thermo Fisher Scientific). Sections were imaged using a light microscope (TE360 Eclipse; Nikon, Japan) at 10× magnification. The Iba1-positive cell area (area occupied by Iba1-positive cells divided by the total area) was quantified for each spinal cord section using ImageJ software (Voxel counter plugin, NIH, USA). Two to three sections were analyzed per mouse. […]

SOD1^G93A mouse model [4] = test: Rotarod; details: TgSOD1-Cromolyn vs TgSOD1-Vehicle; 6.3 mg/kg i.p.
Description: Mice were placed on a fixed speed (16 rpm) rotating rod (3.0 cm) (Rotamex, Columbus Instruments) as previously described. Mice were trained to remain on the rotarod for 180 seconds once at P40. For each experimental time point (P70, P90, P110, P130, P150), the time mice spent on the rotating rod was calculated up to a maximum of 180 seconds. Three trials were performed for each time point and the greatest value for each session was used for analysis.
as §1

O=C(O)c1cc(=O)c2c(OCC(O)COc3cccc4oc(C(=O)O)cc(=O)c34)cccc2o1 [cromolyn, cromolyn sodium]
MCP-1 levels in the spinal cord (MCP-1; TgSOD1-Cromolyn vs TgSOD1-Vehicle): no effect of cromolyn treatment on MCP-1 levels | MCP-1 levels in the plasma (MCP-1; any of the groups): not altered | motor neuron survival (lumbar spinal cord motor neuron counts) [1]: significantly increased | neuronal GPR35 levels (co-localized with NeuN) (GPR35; p=0.0411): significant increase in neuronal GPR35 levels | GPR35 levels (immunofluorescence intensity) (GPR35; p=0.0449): significant increase in GPR35 levels | PaGE performance (SOD1^G93A mouse model [2]; 6.3 mg/kg i.p., all mice, P120 and P140): significant improvement in PaGE performance | PaGE performance (SOD1^G93A mouse model [2]; female mice, P100): greater deficits in PaGE performance | PaGE performance (SOD1^G93A mouse model [2]; female mice, P140): significant improvement | PaGE performance (SOD1^G93A mouse model [2]; male mice, P120): significant improvement in PaGE | percentage of Iba1-positive cell area in the lumbar spinal cord [3]: no significant change | rotarod performance (SOD1^G93A mouse model [4]): no difference in rotarod performance
